Experimental findings from publication PMC12621191, “Increasing the Chemical Space of L-SIGN Specific Glycomimetics” (Journal of Medicinal Chemistry, 2025) are described below.

The target in one experiment is T1, DC-SIGN (Homo sapiens, UniProt Q9NNX6).
T1 construct: DC-SIGN 3G-ECD (amino acids 66 to 404); made in house
T1 sequence (Q9NNX6 66-404): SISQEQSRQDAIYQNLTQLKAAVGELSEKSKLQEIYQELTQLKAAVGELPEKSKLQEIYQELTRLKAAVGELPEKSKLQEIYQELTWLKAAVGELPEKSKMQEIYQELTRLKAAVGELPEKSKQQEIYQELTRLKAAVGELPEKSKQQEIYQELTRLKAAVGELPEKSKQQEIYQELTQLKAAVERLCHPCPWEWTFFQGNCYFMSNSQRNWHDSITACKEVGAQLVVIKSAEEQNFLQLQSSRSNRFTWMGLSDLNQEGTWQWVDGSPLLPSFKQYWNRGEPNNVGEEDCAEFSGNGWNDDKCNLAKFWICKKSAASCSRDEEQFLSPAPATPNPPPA
Briefly: SPR binding inhibition (competition) assay on immobilized SARS-CoV-2 Spike surface, DC-SIGN. Particulars: Spike functionalized chip, DC-SIGN 20 μM coinjected with ligand, pH 8, duplicates.

The target in the next experiment is T2, L-SIGN (Homo sapiens, UniProt Q9H2X3).
T2 construct: L-SIGN 3G-ECD (amino acids 78 to 399); made in house
T2 sequence (Q9H2X3 78-399): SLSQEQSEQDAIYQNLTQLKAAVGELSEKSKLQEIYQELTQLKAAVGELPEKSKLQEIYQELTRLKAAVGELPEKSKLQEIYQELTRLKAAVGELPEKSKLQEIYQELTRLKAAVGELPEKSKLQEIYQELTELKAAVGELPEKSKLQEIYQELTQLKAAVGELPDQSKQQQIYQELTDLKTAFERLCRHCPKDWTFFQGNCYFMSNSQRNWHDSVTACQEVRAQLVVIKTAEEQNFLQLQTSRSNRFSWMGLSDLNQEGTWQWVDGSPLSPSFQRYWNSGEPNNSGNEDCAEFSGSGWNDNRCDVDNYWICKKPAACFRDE
Briefly: SPR binding inhibition (competition) assay on immobilized SARS-CoV-2 Spike surface, L-SIGN. Particulars: for Selectivity = (IC50 [DC-SIGN]/IC50 [L-SIGN]): L-SIGN vs DC-SIGN, SPR inhibition on Spike surface; for IC50 / L-SIGN IC50: SPR, Spike functionalized chip, L-SIGN 20 μM coinjected with ligand, pH 8, duplicates.

`N=C(N)NCc1cn([C@@H]2[C@@H](OCCCl)O[C@H](CO)[C@@H](O)[C@@H]2O)nn1` [Man84, reference compound] yielded an IC50 at DC-SIGN of 1160 ± 25 µM. Also, on L-SIGN, the “Selectivity = (IC50 [DC-SIGN]/IC50 [L-SIGN])” value (“Selectivity =” for short) came out at 61 and the IC50 was found to be 19 ± 0.02 µM.
As for `OC[C@H]1O[C@H](OCCCl)[C@@H](n2cc(CNc3ncccn3)nn2)[C@@H](O)[C@@H]1O` [compound 2], the IC50 at DC-SIGN worked out at 798 ± 16 µM. Further, at L-SIGN, the IC50 was 602 ± 0.5 µM and the “L-SIGN IC50” value is “Low affinity”.
The corresponding values for `COc1nc(NCc2cn([C@@H]3[C@@H](OCCCl)O[C@H](CO)[C@@H](O)[C@@H]3O)nn2)nc(OC)n1` [compound 3, 2-Chloroethyl 2-Deoxy-2-(4-(((4,6-dimethoxy-1,3,5-triazin-2-yl)amino)methyl)-1,2,3-triazol-1-yl)-α-D-mannopyranoside] are 555 ± 14 µM, 453 ± 0.4 µM and “Low affinity”.
Regarding `OC[C@H]1O[C@H](OCCCl)[C@@H](n2cc(CNC3=NCCN3)nn2)[C@@H](O)[C@@H]1O` [compound 4], the IC50 at DC-SIGN turned out to be 1130 ± 26 µM. For the same compound, on L-SIGN, the “Selectivity =” value is 76 and the IC50 was determined as 15 ± 0.01 µM.
The corresponding values for `OC[C@H]1O[C@H](OCCCl)[C@@H](n2cc(CNC3=NCCCN3)nn2)[C@@H](O)[C@@H]1O` [compound 5, 2-Chloroethyl 2-Deoxy-2-(4-(((1,4,5,6-tetrahydropyrimidin-2-yl)amino)methyl)-1,2,3-triazol-1-yl)-α-D-mannopyranoside] are 1130 ± 55 µM, 94 and 12 ± 0.01 µM.
On the same counts, the results for `O=c1ccnc(NCc2cn([C@@H]3[C@@H](OCCCl)O[C@H](CO)[C@@H](O)[C@@H]3O)nn2)[nH]1` [compound 6, 2-Chloroethyl 2-Deoxy-2-(4-(((pyrimidin-4(3H)-onyl)amino)methyl)-1,2,3-triazol-1-yl)-α-D-manno Pyranoside] are 750 ± 29 µM, 25 and 30 ± 0.2 µM.
On the same counts, the results for `O=c1nccc(NCc2cn([C@@H]3[C@@H](OCCCl)O[C@H](CO)[C@@H](O)[C@@H]3O)nn2)[nH]1` [compound 7, 2-Chloroethyl 2-Deoxy-2-(4-(((pyrimidin-2(1H)-onyl)amino)methyl)-1,2,3-triazol-1-yl)-α-D-manno Pyranoside] are 692 ± 8 µM, 5 and 130 ± 1 µM.
`OC[C@H]1O[C@H](OCCCl)[C@@H](n2cc(CNc3ccccn3)nn2)[C@@H](O)[C@@H]1O` [compound 8, 2-Chloroethyl 2-Deoxy-2-((4-((pyridin-2-ylamino)methyl))-1,2,3-triazol-1-yl)-α-D-mannopyranoside] came in with an IC50 on DC-SIGN of 822 ± 16 µM. Further, at L-SIGN, the “Selectivity =” value is listed as 8 and the IC50 was 101 ± 0.2 µM.
With `OC[C@H]1O[C@H](OCCCl)[C@@H](n2cc(CNc3ncc[nH]3)nn2)[C@@H](O)[C@@H]1O` [compound 9, 2-Chloroethyl 2-Deoxy-2-(4-(((1H-imidazol-2-yl)amino)methyl)-1,2,3-triazol-1-yl)-α-D-mannopyranoside], the IC50 at DC-SIGN is 895 ± 8 µM; on L-SIGN it was 18 ± 0.1 µM. Also, the “Selectivity =” value on L-SIGN was 50.
The corresponding values for `OC[C@H]1O[C@H](OCCCl)[C@@H](n2cc(CNc3nc4ccccc4[nH]3)nn2)[C@@H](O)[C@@H]1O` [compound 10, 2-Chloroethyl 2-Deoxy-2-(4-(((1H-benzo[d]imidazol-2-yl)amino)methyl)-1,2,3-triazol-1-yl)-α-D-mannopyranoside] are 779 ± 24 µM, 48 ± 0.4 µM and 16.
At DC-SIGN, `COc1ccc2[nH]c(NCc3cn([C@@H]4[C@@H](OCCCl)O[C@H](CO)[C@@H](O)[C@@H]4O)nn3)nc2c1` [compound 11, 2-Chloroethyl 2-Deoxy-2-(4-(((5-methoxy-1H-benzo[d]imidazol-2-yl)amino)methyl)-1,2,3-triazol-1-yl)-α-D-mannopyranoside] gave an IC50 of 602 ± 12 µM. On L-SIGN, the “Selectivity =” value amounted to 12 and the IC50 turned out to be 51.6 ± 0.7 µM.
On to `NCc1cn([C@@H]2[C@@H](OCCCl)O[C@H](CO)[C@@H](O)[C@@H]2O)nn1` [compound 51, reference compound], for which the IC50 on DC-SIGN and on L-SIGN was approximately 300 µM each time. Besides, at L-SIGN (listed as 51 (Man79)), the “Selectivity =” value is listed as “totally unselective”.
